Converted amounts (≈) assume the structure as drawn. “Also recorded” adds a separate entry of the source. Where two headings read alike, the source gives them in different places.
Columns and labels:
[1] = test system: pro-inflammatory cytokine genes IL-1β, IL-8, IL-6, TNF-α (促炎细胞因子基因); assay: Pro-inflammatory cytokine gene expression in zebrafish intestine (qRT-PCR); conditions: 6 h after infection
[2] = test system: Aeromonas hydrophila (嗜水气单胞菌); assay: MIC/MBC by twofold dilution in TSB; format: cell-based, Aeromonas hydrophila AH08; conditions: 30 °C, 24 h; for MIC: TSB
[3] = test system: Aeromonas hydrophila biofilm (嗜水气单胞菌生物膜); assay: Biofilm inhibition test (crystal violet); format: cell-based, Aeromonas hydrophila AH08; conditions: for inhibition at 128 µg/mL: Aeromonas hydrophila, 128 μg/ml, 30 °C, read-out: inhibition rate of biofilm
[4] = test system: Aeromonas hydrophila (嗜水气单胞菌); assay: microbe, parasite or virus in culture; conditions: 18 h
[5] = test system: Aeromonas hydrophila (嗜水气单胞菌); assay: Protection of zebrafish infected with A. hydrophila (survival); format: in vivo, Aeromonas hydrophila AH08; zebrafish; conditions: for time of death of the first zebrafish: injected after intraperitoneal infection; for survival rate: model group 0
[6] = test system: Aeromonas hydrophila (嗜水气单胞菌); conditions: swarming and swimming, 64-256 μg/mL
[7] = test system: virulence factor and QS genes of Aeromonas hydrophila (嗜水气单胞菌毒力因子及QS基因); assay: qRT-PCR of quorum sensing and virulence genes; format: cell-based, Aeromonas hydrophila AH08; conditions: normalised to rpob
[8] = test system: AI-2 of Aeromonas hydrophila (AI-2); assay: AI-2 bioluminescence assay with V. harveyi BB170 reporter; format: cell-based, Aeromonas hydrophila AH08; conditions: compared with control (no EGCG); 16-256 μg/mL
[9] = test system: Aeromonas hydrophila (嗜水气单胞菌); assay: Histopathology of infected zebrafish (gill, muscle, liver; H&E); format: in vivo, Aeromonas hydrophila AH08; zebrafish
[10] = test system: Aeromonas hydrophila (嗜水气单胞菌); format: in vivo, Aeromonas hydrophila AH08; zebrafish; conditions: for reduction of bacterial adhesion CFU: compared with model group
[11] = test system: Aeromonas hydrophila (嗜水气单胞菌); assay: Growth curve of A. hydrophila; format: cell-based, Aeromonas hydrophila AH08
[12] = read-out: inhibition rate of swarming
[13] = read-out: inhibition rate of swimming

O=C(O[C@@H]1Cc2c(O)cc(O)cc2O[C@@H]1c1cc(O)c(O)c(O)c1)c1cc(O)c(O)c(O)c1 [EGCG, 表没食子儿茶素-3-没食子酸酯]
expression of IL-1β [1]: 显著抑制 | expression of IL-6 [1]: 显著抑制 | expression of IL-8 [1]: 显著抑制 | expression of TNF-α [1]: 显著抑制 | MBC ([2]; Aeromonas hydrophila, TSB agar): 4100 µg/mL (≈ 8940 µM) | MIC ([2]; Aeromonas hydrophila, read-out: MIC): 1020 µg/mL (≈ 2230 µM) | MIC [2]: 1024 µg/mL (≈ 2230 µM) | inhibition of biofilm formation (in words) ([3]; 16-256 μg/mL): 显著抑制 | concentration dependence of biofilm inhibition ([3]; 24 h): 呈浓度依赖性 | inhibition at 128 µg/mL ([3]; 24 h): 38.3% | inhibition at 128 µg/mL ([3]; 48 h): 26.6% | inhibition at 128 µg/mL [4, 12]: 29.7% | inhibition at 256 µg/mL [4, 12]: 33% | inhibition at 64 µg/mL [4, 13]: 16% | inhibition at 128 µg/mL [4, 13]: 28.3% | inhibition at 256 µg/mL [4, 13]: 66% | time of death of the first zebrafish ([5]; 50 mg/kg): 18 h | time of death of the first zebrafish ([5]; 100 mg/kg): 48 h | survival rate ([5]; high dose group (100 mg/kg), 48 h after infection): 88.9% | survival rate (in words) ([5]; low dose group (10 mg/kg), 48 h after infection, compared with model group): 与模型组的生存率相同 | survival rate ([5]; medium dose group (50 mg/kg), 48 h after infection): 88.9% | inhibition of motility (in words) [6]: 显著抑制嗜水气单胞菌的运动性,且呈浓度依赖性 | expression of LuxR ([7]; AI-1 related gene): 不影响 | expression of ahyI ([7]; AI-1 related gene): 显著抑制 | expression of ahyR ([7]; AI-1 related gene): 显著抑制 | expression of LuxS ([7]; AI-2 synthase): 显著抑制 | expression of QseB ([7]; AI-3 related gene): 显著抑制 | expression of ahyB ([7]; elastase gene): 显著下调 | expression of flgL ([7]; flagellar gene): 显著下调 | expression of ahh1 ([7]; hemolysin gene): 显著下调 | expression of hly ([7]; hemolysin gene): 显著下调 | AI-2 secreted by A. hydrophila [8]: 明显减少,并呈浓度依赖性 | protection of tissues of infected zebrafish ([9]; dose-dependent): 显著的保护作用 | pathological damage caused by A. hydrophila ([9]; liver, muscle and gill of infected zebrafish): 明显改善 | inflammatory cell infiltration ([9]; zebrafish liver, muscle and gill): 显著减少 | reduction of bacterial adhesion CFU ([10]; 10 mg/kg): 21.22% | reduction of bacterial adhesion CFU ([10]; 50 mg/kg): 33.47% | reduction of bacterial adhesion CFU ([10]; 100 mg/kg): 38.00% | adhesion of A. hydrophila to zebrafish (in words) ([10]; after EGCG treatment): 显著降低 | bacterial load of zebrafish (in words) ([10]; after EGCG treatment): 显著降低 | inhibition of growth after 12 h (growth curve) ([11]; 0-256 μg/mL, 30 °C, after 12 h): 没有明显的抑制作用 | effect on lag phase (growth curve) ([11]; 0-256 μg/mL, 30 °C, od600nm): 增加了细菌的滞后期; also recorded: 延缓了嗜水气单胞菌进入对数生长期的时间 | bactericidal effect ([11]; 64-256 μg/ml, compared with control without EGCG): 不直接产生杀菌作用 | effect on growth after 24 h ([11]; sub-MIC, after 24 h): 没有明显影响

From CN116139126A, “表没食子儿茶素-3-没食子酸酯在制备嗜水气单胞菌的群体感应抑制剂中的应用” (Yueyang Yumeikang Bio Tech Co ltd, priority 2023, dated 2023)
